{"source": "ChEMBL document CHEMBL5465560", "about": "“Selectivity Literature for EUbOPEN Chemogenomic Library” (2024)", "key": {"[1]": {"target": "T1, Ephrin type-A receptor 6 (Homo sapiens) (UniProt Q9UF33)", "T1 sequence (whole entry)": "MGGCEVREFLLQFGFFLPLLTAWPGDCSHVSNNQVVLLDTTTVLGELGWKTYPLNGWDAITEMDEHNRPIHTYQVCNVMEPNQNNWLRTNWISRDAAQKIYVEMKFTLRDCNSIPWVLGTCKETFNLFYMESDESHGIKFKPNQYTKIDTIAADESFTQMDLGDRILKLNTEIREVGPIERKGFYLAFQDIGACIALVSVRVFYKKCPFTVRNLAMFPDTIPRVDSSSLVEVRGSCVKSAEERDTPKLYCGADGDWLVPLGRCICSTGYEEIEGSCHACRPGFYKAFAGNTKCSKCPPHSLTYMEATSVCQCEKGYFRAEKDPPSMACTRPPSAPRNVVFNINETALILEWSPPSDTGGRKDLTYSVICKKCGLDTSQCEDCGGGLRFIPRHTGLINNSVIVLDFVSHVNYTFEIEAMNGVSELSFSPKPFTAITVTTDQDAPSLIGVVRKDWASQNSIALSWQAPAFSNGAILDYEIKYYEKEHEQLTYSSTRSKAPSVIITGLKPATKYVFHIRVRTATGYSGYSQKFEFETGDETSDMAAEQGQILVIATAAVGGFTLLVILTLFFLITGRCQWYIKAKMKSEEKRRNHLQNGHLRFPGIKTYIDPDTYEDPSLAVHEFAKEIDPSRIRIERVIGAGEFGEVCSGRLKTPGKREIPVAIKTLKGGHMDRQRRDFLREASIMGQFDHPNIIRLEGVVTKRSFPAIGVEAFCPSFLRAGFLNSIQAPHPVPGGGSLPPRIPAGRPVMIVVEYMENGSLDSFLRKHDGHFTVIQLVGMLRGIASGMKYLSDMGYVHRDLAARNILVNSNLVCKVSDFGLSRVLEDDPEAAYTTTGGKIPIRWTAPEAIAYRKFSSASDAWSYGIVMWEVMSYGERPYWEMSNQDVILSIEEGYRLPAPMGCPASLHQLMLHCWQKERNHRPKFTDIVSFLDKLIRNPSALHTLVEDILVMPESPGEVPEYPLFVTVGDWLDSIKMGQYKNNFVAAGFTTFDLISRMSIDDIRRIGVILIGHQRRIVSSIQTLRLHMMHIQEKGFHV", "test": "Selectivity interaction (KinomeScan (DiscoverX)) EUB0000229b EPHA6", "conditions": "at 10 µM"}, "[2]": {"target": "Tyrosine-protein kinase Srms (Homo sapiens) (UniProt Q9H3Y6)", "sequence (Q9H3Y6 whole entry)": "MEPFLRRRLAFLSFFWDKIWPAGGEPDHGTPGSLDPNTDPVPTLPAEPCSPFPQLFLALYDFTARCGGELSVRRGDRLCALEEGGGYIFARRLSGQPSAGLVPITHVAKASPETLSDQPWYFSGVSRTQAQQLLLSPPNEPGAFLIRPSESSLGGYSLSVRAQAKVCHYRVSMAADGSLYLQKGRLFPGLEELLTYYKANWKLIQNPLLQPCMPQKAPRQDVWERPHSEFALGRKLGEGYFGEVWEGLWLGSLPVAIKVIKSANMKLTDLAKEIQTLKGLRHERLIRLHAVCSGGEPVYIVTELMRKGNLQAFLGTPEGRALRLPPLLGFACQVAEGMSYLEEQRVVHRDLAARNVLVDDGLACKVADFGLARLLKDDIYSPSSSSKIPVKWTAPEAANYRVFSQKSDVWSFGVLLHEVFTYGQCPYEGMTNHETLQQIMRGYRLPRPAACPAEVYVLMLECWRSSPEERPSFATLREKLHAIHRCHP", "test": "Selectivity interaction (KinomeScan (DiscoverX)) EUB0000229b SRMS", "conditions": "at 10 µM"}, "[3]": {"target": "Casein kinase II subunit alpha' (Homo sapiens) (UniProt P19784)", "sequence (P19784 whole entry, looked up)": "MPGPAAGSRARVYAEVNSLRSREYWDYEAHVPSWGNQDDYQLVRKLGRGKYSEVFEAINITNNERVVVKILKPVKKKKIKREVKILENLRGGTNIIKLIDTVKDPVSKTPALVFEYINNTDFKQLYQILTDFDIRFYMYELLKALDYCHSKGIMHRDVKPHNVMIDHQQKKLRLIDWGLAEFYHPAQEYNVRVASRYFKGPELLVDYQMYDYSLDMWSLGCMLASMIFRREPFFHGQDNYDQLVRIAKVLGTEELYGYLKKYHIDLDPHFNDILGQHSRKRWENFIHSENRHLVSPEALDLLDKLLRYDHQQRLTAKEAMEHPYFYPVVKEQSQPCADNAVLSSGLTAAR", "test": "Selectivity interaction (KinomeScan (DiscoverX)) EUB0000092b CSNK2A2", "conditions": "at 10 µM"}, "[4]": {"target": "Serine/threonine-protein kinase Nek6 (Homo sapiens) (UniProt Q9HC98)", "sequence (Q9HC98 whole entry)": "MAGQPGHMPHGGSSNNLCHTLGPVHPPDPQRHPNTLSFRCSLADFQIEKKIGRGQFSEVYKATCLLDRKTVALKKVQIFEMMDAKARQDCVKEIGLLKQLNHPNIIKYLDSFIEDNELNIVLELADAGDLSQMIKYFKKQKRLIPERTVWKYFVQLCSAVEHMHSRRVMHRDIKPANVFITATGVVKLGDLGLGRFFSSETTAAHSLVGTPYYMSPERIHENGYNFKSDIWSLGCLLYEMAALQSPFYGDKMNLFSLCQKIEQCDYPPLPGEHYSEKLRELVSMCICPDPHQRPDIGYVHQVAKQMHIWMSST", "test": "Selectivity interaction (ActivX KiNativ screen (kinase selectivity in THP-1 cell lysates)) EUB0000639a NEK6", "type": "subcellular", "conditions": "lysate"}, "[5]": {"target": "T2, Ephrin type-A receptor 3 (Homo sapiens) (UniProt P29320)", "T2 sequence (whole entry)": "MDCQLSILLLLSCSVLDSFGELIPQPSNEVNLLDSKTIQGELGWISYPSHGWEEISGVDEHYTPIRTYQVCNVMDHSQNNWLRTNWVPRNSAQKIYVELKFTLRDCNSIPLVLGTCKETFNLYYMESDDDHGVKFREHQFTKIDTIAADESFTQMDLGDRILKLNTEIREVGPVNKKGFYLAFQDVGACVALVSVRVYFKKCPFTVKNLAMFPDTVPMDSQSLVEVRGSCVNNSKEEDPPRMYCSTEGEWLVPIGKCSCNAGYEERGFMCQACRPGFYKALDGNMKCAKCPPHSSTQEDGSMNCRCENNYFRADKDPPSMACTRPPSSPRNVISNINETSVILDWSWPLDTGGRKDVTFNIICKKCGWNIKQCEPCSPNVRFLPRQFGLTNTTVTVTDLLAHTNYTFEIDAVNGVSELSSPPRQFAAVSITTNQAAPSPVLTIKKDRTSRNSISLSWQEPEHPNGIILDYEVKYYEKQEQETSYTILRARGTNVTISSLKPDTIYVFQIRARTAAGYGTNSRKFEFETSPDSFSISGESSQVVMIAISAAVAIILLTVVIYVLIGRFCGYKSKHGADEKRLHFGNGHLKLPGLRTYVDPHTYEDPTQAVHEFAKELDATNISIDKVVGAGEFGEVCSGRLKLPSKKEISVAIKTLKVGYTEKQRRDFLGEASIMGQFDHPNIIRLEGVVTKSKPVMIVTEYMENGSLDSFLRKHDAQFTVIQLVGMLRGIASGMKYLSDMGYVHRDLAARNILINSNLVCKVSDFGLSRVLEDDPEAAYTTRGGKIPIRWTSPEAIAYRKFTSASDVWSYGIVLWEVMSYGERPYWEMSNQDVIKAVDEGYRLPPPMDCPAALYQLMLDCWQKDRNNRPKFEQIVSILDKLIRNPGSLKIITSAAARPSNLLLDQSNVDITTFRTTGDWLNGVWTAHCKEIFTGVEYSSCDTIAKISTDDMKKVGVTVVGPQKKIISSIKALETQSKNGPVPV", "test": "Selectivity interaction (Ambit KINOMEscan and KiNATiv profiling in Jurkat cells) EUB0000090b EPHA3", "type": "cell-based", "conditions": "at 1 µM"}, "[6]": {"target": "Myosin light chain kinase, smooth muscle (Homo sapiens, UniProt Q15746)", "sequence (Q15746 whole entry)": "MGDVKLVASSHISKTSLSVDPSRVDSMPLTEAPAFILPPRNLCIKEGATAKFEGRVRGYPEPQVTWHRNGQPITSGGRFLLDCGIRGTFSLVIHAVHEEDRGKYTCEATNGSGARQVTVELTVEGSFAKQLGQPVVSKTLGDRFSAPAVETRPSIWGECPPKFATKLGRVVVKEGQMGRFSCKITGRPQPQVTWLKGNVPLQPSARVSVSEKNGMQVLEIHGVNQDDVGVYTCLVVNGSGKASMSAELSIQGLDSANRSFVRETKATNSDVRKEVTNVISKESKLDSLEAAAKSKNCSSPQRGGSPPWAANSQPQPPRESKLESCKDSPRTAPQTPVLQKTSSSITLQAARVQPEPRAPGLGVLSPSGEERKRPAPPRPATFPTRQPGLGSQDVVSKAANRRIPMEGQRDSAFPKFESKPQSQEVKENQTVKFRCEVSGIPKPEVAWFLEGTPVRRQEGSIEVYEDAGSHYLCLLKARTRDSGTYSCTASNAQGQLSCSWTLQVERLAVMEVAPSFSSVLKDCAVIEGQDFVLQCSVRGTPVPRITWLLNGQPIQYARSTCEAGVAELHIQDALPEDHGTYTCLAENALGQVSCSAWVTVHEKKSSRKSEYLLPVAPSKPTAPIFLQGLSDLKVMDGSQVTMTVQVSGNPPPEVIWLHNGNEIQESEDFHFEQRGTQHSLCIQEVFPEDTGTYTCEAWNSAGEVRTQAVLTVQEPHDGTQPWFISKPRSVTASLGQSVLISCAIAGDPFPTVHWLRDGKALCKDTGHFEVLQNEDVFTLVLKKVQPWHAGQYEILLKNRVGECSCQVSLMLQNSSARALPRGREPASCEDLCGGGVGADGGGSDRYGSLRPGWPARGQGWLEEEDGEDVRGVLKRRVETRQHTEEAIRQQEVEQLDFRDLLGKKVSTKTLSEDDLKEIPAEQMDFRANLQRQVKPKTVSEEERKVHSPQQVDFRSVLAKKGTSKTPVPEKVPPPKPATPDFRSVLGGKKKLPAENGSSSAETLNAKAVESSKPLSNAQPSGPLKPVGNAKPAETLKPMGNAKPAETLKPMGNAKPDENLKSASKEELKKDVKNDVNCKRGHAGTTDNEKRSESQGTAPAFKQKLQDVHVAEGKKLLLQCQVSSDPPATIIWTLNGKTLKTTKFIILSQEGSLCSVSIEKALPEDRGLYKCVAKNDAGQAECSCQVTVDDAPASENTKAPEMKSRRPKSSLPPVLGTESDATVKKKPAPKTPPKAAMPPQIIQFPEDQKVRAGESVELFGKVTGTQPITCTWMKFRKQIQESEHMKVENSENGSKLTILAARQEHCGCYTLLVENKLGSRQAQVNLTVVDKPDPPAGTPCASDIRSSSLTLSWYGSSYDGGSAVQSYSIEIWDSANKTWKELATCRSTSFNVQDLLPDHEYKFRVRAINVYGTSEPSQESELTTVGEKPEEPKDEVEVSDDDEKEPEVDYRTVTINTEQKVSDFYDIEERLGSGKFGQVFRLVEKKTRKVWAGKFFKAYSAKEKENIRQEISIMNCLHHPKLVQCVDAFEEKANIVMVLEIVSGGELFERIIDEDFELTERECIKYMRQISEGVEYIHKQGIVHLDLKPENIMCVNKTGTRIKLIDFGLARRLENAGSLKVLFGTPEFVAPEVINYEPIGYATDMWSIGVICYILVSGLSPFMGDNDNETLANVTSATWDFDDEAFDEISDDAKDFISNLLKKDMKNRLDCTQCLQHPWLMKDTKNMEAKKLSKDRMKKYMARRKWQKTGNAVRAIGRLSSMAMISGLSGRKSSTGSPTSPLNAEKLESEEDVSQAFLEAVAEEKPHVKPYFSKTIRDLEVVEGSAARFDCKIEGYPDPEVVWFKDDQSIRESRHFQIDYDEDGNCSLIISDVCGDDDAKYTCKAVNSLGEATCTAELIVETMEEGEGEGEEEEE", "test": "Selectivity interaction (Ambit KINOMEscan and KiNATiv profiling in Jurkat cells) EUB0000090b MYLK", "type": "cell-based", "conditions": "at 1 µM"}, "[7]": {"target": "Tyrosine-protein kinase Fes/Fps (Homo sapiens) (UniProt P07332)", "sequence (P07332 whole entry)": "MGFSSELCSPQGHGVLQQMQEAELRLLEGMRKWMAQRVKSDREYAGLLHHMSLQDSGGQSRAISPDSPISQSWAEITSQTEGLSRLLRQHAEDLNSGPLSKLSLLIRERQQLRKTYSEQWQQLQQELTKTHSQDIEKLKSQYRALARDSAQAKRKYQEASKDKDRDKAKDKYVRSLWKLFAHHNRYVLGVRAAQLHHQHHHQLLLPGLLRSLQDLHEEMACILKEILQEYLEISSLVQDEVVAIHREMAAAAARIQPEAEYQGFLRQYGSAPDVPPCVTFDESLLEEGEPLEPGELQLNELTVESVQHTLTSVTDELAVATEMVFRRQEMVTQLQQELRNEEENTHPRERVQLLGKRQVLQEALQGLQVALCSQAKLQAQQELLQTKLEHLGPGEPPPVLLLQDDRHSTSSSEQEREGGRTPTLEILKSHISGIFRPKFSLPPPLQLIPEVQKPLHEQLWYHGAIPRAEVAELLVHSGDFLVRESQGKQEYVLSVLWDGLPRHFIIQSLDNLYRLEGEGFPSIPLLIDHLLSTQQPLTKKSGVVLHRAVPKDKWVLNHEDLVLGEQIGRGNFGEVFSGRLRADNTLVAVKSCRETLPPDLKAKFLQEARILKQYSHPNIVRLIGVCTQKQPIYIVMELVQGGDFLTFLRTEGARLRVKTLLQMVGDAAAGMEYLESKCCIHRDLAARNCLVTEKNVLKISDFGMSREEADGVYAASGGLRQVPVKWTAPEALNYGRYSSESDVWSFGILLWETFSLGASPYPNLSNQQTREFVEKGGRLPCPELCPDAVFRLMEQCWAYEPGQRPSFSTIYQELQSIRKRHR", "test": "Selectivity interaction (Ambit KINOMEscan and KiNATiv profiling in Jurkat cells) EUB0000090b FES", "type": "cell-based", "conditions": "at 1 µM"}}, "data": [{"compound": "COc1cc(N(C)c2ccnc3ccc(C(F)(F)F)cc23)cc(OC)c1OC", "values": [{"measurement": "% binding", "setting": "[1]", "value": 97, "unit": "%"}, {"measurement": "% binding", "setting": "[2]", "value": 60, "unit": "%"}]}, {"compound": "CCC(=O)N1CCN(c2ccc(-n3c(=O)ccc4cnc5ccc(-c6cnc7ccccc7c6)cc5c43)cc2C(F)(F)F)CC1", "values": [{"measurement": "% of control", "setting": "[3]", "value": 11, "unit": "%"}]}, {"compound": "CC[C@@H]1[C@H](F)C(=O)N[C@@H]1COc1nccc2cc(C(N)=O)c(OC)cc12", "note": "[ZIMLOVISERTIB]", "values": [{"measurement": "% of inhibition", "setting": "[4]; at 0.01 µM", "value": -2.2, "unit": "%"}, {"measurement": "% of inhibition", "setting": "[4]; at 0.04 µM", "value": 1.5, "unit": "%"}, {"measurement": "% of inhibition", "setting": "[4]; at 0.2 µM", "value": -2.2, "unit": "%"}, {"measurement": "% of inhibition", "setting": "[4]; at 1 µM", "value": 2, "unit": "%"}, {"measurement": "% of inhibition", "setting": "[4]; at 5 µM", "value": -1.4, "unit": "%"}]}, {"compound": "CN(C)C/C=C/C(=O)Nc1ccc(C(=O)N2CCCC(Nc3ncc(Cl)c(-c4c[nH]c5ccccc45)n3)C2)cc1", "note": "(stereo unspecified)", "values": [{"measurement": "% of control", "setting": "[5]", "value": 89, "unit": "%"}, {"measurement": "% of control", "setting": "[6]", "value": 100, "unit": "%"}, {"measurement": "% of control", "setting": "[7]", "value": 68, "unit": "%"}]}]}
